These results are taken from patent EP2933270B1, “ARTEANNUIN CYCLODEXTRIN CONJUGATE AND PREPARING METHOD THEREOF” (KPC Pharmaceuticals, Inc., priority 2012, dated 2014).

Like-named read-outs stand apart in the source and are kept apart here.

The test system of data set [1] is HCT116. Nature of the data set: MTT assay, growth inhibition of human rectal cancer cells. The format is cell-based. The protocol: (§1) For example, 180 µl suspension of human rectal cancer cells HCT116, Lovo, SW480 and HT29 at a concentration of 4×10^4/mL is added to 96-well culture plate, and pre-cultured under the conditions of 5% CO2, 37°C and saturated moisture for 24h. After 150 µl medium is replaced, 20 µl medium containing molecular assembly at different concentrations is added, and cultured for another 48 h, with the medium free of a sample as a negative control, and a medium containing camptothecin, oxaliplatin and fluorouracil at different concentrations as a positive control. MTT assay is used to determine the OD value, and to calculate the growth inhibition rate. The inhibition of compounds at high, medium and low concentrations on the tumor cell proliferation is observed. All the experiments above are performed in triplet. Results for in vitro experiment of the arteannuin-cyclodextrin conjugate with respect to human rectum and caecum cancer cells are shown in table 1. Table 1 IC50 value (µM) for certain arteannuin compounds in several rectum cancer cells
A general note: Formazan colour is commonly taken as a measure of viable cells.

For data set [2], the system named is HT29. Described as above. To be noted: 48 h. The format is cell-based. The protocol: as §1
The subject of data set [3] is Lovo. Described as above. The format is cell-based. To be noted: 48 h. As for the experimental part:
as §1

Data set [4] deals with SW480. Described as above. The data set is classed as cell-based. To be noted: 48 h. The protocol:
as §1

A short description of data set [5]: Solubility in water. An excerpt: The arteannuin-cyclodextrin conjugate according to the present invention uses a cyclodextrin as a carrier, and a molecule of an arteannuin compound is connected, via an amide bond formed between the carboxyl group thereof and any amine group of the cyclodextrin modified by an amine group, to the cyclodextrin.
Data set [6] has as its system Hep2 hepatoma. To be noted: mice, intraperitoneal injection, 60 mg/kg; cited from earlier work.
Data set [7] concerns hepatocarcinoma H22. As to conditions: mice, 300 mg/kg by gavage; cited from earlier work.
The mark [8] stands for this setting: HT 90 [sic] cells (method: HT29).
[9] abbreviates: isolated product of the example.
The mark [10] stands for this setting: Homo sapiens, HT-29, HT 90 [sic] cells (method: HT29).

For `O=C1[O][Pt]2([NH][C@@H]3CCCC[C@H]3[NH]2)[O]C1=O` [oxaliplatin], the IC50 (commonly the concentration that gives 50% inhibition) in data set [1] (48 h) is 0.76 µM; in data set [2] (setting [8]), 9.7 µM; in data set [3] it was 1.51 µM; in data set [4] it was 30.1 µM.

As to “mono-[6-(ethanediamine)-6-deoxy]-β-cyclodextrin-artesunate conjugate [Example 1]”, the IC50 in data set [1] (48 h) amounted to 0.58 µM; in data set [2] (setting [8]), 5.18 µM; in data set [3], 1.62 µM; in data set [4], 3.89 µM. Further, the solubility (in general, the concentration that dissolves in the medium under given conditions) in data set [5] (setting [9]) was 68 mg/mL.

In data set [5] (setting [9]), “conjugate of mono-[6-(monoamine)-6-deoxy]-β-cyclodextrin and the compound in which C-12 of the arteannuin was connected with a phenoxy group [Example 6]” gave a solubility of 54 mg/mL.

For `C[C@@H]1CC[C@H]2[C@@H](C)C(=O)O[C@@H]3O[C@@]4(C)CC[C@@H]1[C@]32OO4` [arteannuin], the “solubility in water” value in data set [5] (in water) was “almost insoluble in water”.

With `O=c1[nH]cc(F)c(=O)[nH]1` [fluorouracil], the IC50 stood at 5.4 µM in data set [1] (Homo sapiens, HCT-116, 48 h); 38.5 µM in data set [2] (setting [10]); 23 µM in data set [3] (Homo sapiens); 30.8 µM in data set [4] (Homo sapiens).

Turning to “conjugate of mono-[6-(ethanediamine)-6-deoxy]-β-cyclodextrin and the compound in which C-12 of the arteannuin was connected with a phenoxy group [Example 5]”, in data set [5], the solubility amounted to 68 mg/mL.

Take `C[C@H]1[C@@H](O)O[C@@H]2O[C@@]3(C)CC[C@H]4[C@H](C)CC[C@@H]1[C@@]24OO3` [dihydroarteannuin]: the IC50 in data set [1] (Homo sapiens, HCT-116, 48 h) turned out to be 1.76 µM; in data set [2] (setting [10]), 21.1 µM; in data set [3] (Homo sapiens), 2.11 µM; in data set [4] (Homo sapiens) it was 14.1 µM. Moreover, in data set [5], the “solubility in water” value was “almost insoluble in water”.

As to `C[C@H]1[C@H](OC(=O)CCC(=O)O)O[C@@H]2O[C@@]3(C)CC[C@H]4[C@H](C)CC[C@@H]1[C@@]24OO3` [artesunate], the IC50 in data set [1] (Homo sapiens, HCT-116, 48 h) came out at 1.04 µM; in data set [2] (setting [10]), 9.11 µM; in data set [3] (Homo sapiens), 2.6 µM; in data set [4] (Homo sapiens) it was 1.82 µM. Moreover, the “solubility in water” value in data set [5] (in water) is “almost insoluble in water”. The anti-tumor rate in data set [6] was 80.4%; in data set [7], not below 40%.
